# Measurements from the supplement of paper PMC10307832.
# Tests used:
# Assay in all cases: relative viability (nuclei count vs DMSO), 5 days (fraction); higher = more cells survive
# Lapatinib + AZD7762 = compound: CS(=O)(=O)CCNCc1ccc(-c2ccc3ncnc(Nc4ccc(OCc5cccc(F)c5)c(Cl)c4)c3c2)o1 [Lapatinib] + NC(=O)Nc1cc(-c2cccc(F)c2)sc1C(=O)N[C@H]1CCCNC1 [AZD7762] (partner 0.2 µM)
# How it was run: (§1)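 Relative viability equals treated-well nuclei counts divided by vehicle-well nuclei counts. Counts came from 4× images of lung cancer cell lines grown in 1536-well plates for 5 days after pin-tool dosing on the day after seeding. Dosing used one drug alone or a fixed anchor-drug dose plus five library-drug doses (not always all listed) in √10 steps, and values are medians of duplicate plates.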
# Lapatinib + Navitoclax = compound: CS(=O)(=O)CCNCc1ccc(-c2ccc3ncnc(Nc4ccc(OCc5cccc(F)c5)c(Cl)c4)c3c2)o1 [Lapatinib] + CC1(C)CCC(c2ccc(Cl)cc2)=C(CN2CCN(c3ccc(C(=O)NS(=O)(=O)c4ccc(N[C@H](CCN5CCOCC5)CSc5ccccc5)c(S(=O)(=O)C(F)(F)F)c4)cc3)CC2)C1 [Navitoclax] (partner 0.5 µM)
# How it was run: as §1
# Wnt-C59 + Bortezomib = compound: CC1=NC=CC(=C1)C2=CC=C(C=C2)CC(=O)NC3=CC=C(C=C3)C4=CN=CC=C4 [Wnt-C59] + CC(C)C[C@H](NC(=O)[C@H](Cc1ccccc1)NC(=O)c1cnccn1)B(O)O [Bortezomib] (partner 0.002 µM)
# How it was run: as §1
# Wnt-C59 + Linsitinib = compound: CC1=NC=CC(=C1)C2=CC=C(C=C2)CC(=O)NC3=CC=C(C=C3)C4=CN=CC=C4 [Wnt-C59] + C[C@]1(O)C[C@@H](c2nc(-c3ccc4ccc(-c5ccccc5)nc4c3)c3c(N)nccn32)C1 [Linsitinib] (partner 1 µM)
# How it was run: as §1
Cell Line,relative viability (Lapatinib + AZD7762; first compound 0.06325 µM),relative viability (Lapatinib + AZD7762; first compound 0.2 µM),relative viability (Lapatinib + AZD7762; first compound 0.6325 µM),relative viability (Lapatinib + AZD7762; first compound 2 µM),relative viability (Lapatinib + Navitoclax; first compound 0.06325 µM),relative viability (Lapatinib + Navitoclax; first compound 0.2 µM),relative viability (Lapatinib + Navitoclax; first compound 0.6325 µM),relative viability (Lapatinib + Navitoclax; first compound 2 µM),relative viability (Wnt-C59 + Bortezomib; first compound 0.001 µM),relative viability (Wnt-C59 + Bortezomib; first compound 0.01 µM),relative viability (Wnt-C59 + Bortezomib; first compound 0.03162 µM),relative viability (Wnt-C59 + Bortezomib; first compound 0.1 µM),relative viability (Wnt-C59 + Linsitinib; first compound 0.001 µM),relative viability (Wnt-C59 + Linsitinib; first compound 0.01 µM),relative viability (Wnt-C59 + Linsitinib; first compound 0.03162 µM),relative viability (Wnt-C59 + Linsitinib; first compound 0.1 µM),relative viability (Lapatinib + AZD7762; first compound 0.02 µM),relative viability (Lapatinib + Navitoclax; first compound 0.02 µM)
HCC-78,0.528,0.422,0.599,0.564,0.651,0.752,0.57,0.699,0.571,0.515,0.609,0.422,0.507,0.498,0.576,0.584,,
HCC-366,0.245,0.205,0.247,0.133,1.02,1.08,1.03,0.914,1.06,0.98,1.16,1.07,0.697,0.582,0.717,0.595,,
HCC-827,0.299,0.129,0.19,0.103,0.944,1.08,0.974,0.981,1.05,1.14,0.97,1.05,1,0.966,0.977,0.884,0.172,1
HOP-62,0.526,0.669,0.501,0.568,0.993,1.09,1.1,0.99,0.826,0.752,0.658,0.931,1.09,1.1,1.14,0.95,,0.672
LC-2-ad,0.562,0.768,0.684,0.552,0.415,0.446,0.394,0.264,1.1,1.03,1.11,1.01,0.864,0.811,0.944,0.776,,
LCLC-97TM1,,0.178,0.224,0.259,,0.355,0.327,0.33,0.608,0.878,0.761,0.919,0.182,0.171,0.176,0.156,,
LOU-NH91,0.58,0.696,0.703,0.599,0.558,0.502,0.541,0.324,0.492,0.583,0.465,0.53,1.07,0.748,0.854,0.899,0.76,0.555
LU99A,0.217,0.363,0.388,0.329,0.63,0.805,0.886,0.725,1.11,1.08,1.07,1.1,0.554,0.508,0.594,0.495,0.329,0.829
LXF-289,1.09,1.05,1.13,0.957,0.928,0.957,0.94,0.85,0.969,0.965,0.99,1.02,0.99,0.933,1,0.918,1.02,0.901
NCI-H23,,0.216,0.232,0.154,,0.836,0.777,0.615,1.04,1.07,0.905,0.962,0.719,0.518,0.579,0.483,,
NCI-H322M,0.538,0.536,0.475,0.454,1.07,1.09,1.16,1.09,1.25,1.25,1.23,1.12,1.07,0.775,0.758,0.685,0.557,1.25
NCI-H441,,1.15,0.856,1.14,0.223,0.94,0.514,0.604,0.364,0.236,0.593,0.682,0.496,0.407,0.667,0.575,1.17,
NCI-H460,0.62,0.679,0.537,0.387,1.08,1.08,1.11,1.1,0.934,1.06,1.14,1.1,0.789,0.809,0.869,0.7,,0.966
NCI-H596,0.878,0.939,1.1,0.819,0.95,0.922,0.97,0.706,0.837,1.08,1.12,,1.04,0.954,1.16,1.1,,0.978
NCI-H647,0.573,0.43,0.583,0.401,1.14,1.05,1.04,0.963,1.06,1.02,0.842,1.06,1.08,1.15,1.18,1.22,,
NCI-H727,,0.443,0.551,0.395,0.341,0.401,0.4,0.32,0.948,0.782,0.951,1.08,0.399,0.277,0.269,0.258,0.634,0.388

Cell Line,relative viability (Lapatinib + AZD7762; first compound 0.06325 µM),relative viability (Lapatinib + AZD7762; first compound 0.2 µM),relative viability (Lapatinib + AZD7762; first compound 0.6325 µM),relative viability (Lapatinib + AZD7762; first compound 2 µM),relative viability (Lapatinib + Navitoclax; first compound 0.06325 µM),relative viability (Lapatinib + Navitoclax; first compound 0.2 µM),relative viability (Lapatinib + Navitoclax; first compound 0.6325 µM),relative viability (Lapatinib + Navitoclax; first compound 2 µM),relative viability (Wnt-C59 + Bortezomib; first compound 0.001 µM),relative viability (Wnt-C59 + Bortezomib; first compound 0.01 µM),relative viability (Wnt-C59 + Bortezomib; first compound 0.03162 µM),relative viability (Wnt-C59 + Bortezomib; first compound 0.1 µM),relative viability (Wnt-C59 + Linsitinib; first compound 0.001 µM),relative viability (Wnt-C59 + Linsitinib; first compound 0.01 µM),relative viability (Wnt-C59 + Linsitinib; first compound 0.03162 µM),relative viability (Wnt-C59 + Linsitinib; first compound 0.1 µM),relative viability (Lapatinib + AZD7762; first compound 0.02 µM),relative viability (Lapatinib + Navitoclax; first compound 0.02 µM)
NCI-H838,0.832,0.904,0.939,0.843,1.06,1.16,1.17,1,0.905,0.655,0.739,0.754,1.07,0.997,1.01,1.04,0.927,1.13
NCI-H1355,0.627,0.72,0.753,0.549,0.861,0.824,0.906,0.498,1.18,1.05,1.23,1.1,0.875,0.779,0.881,0.673,0.674,
NCI-H1437,1.11,1.1,1.07,1.06,1.08,1.11,1.03,1,0.576,0.433,0.551,0.395,1.01,1.01,1.04,1.01,1.13,1.09
NCI-H1651,0.451,0.337,0.41,0.402,0.968,0.971,0.899,0.906,0.928,0.985,0.97,0.913,1,0.9,1.02,0.852,0.468,1.05
NCI-H1666,0.815,0.762,0.778,0.619,0.724,0.737,0.464,0.217,0.797,0.749,0.807,0.89,0.941,0.682,0.885,0.874,0.573,0.794
NCI-H1703,0.119,,0.121,0.113,0.943,1.03,1.33,0.996,0.417,0.271,0.331,0.42,0.721,0.631,0.739,0.899,,0.908
NCI-H1734,0.42,0.587,0.507,0.541,0.691,0.802,0.88,0.778,0.906,0.778,0.992,0.914,0.858,0.779,0.916,0.911,,
NCI-H1755,0.402,0.371,0.433,0.541,1.02,0.97,1.01,0.936,0.974,0.88,0.929,0.948,0.979,0.954,0.983,0.984,0.449,0.974
NCI-H1792,,0.568,0.665,0.365,0.589,0.52,0.586,0.645,0.959,0.963,1.04,0.946,0.557,0.5,0.465,0.549,,0.615
NCI-H1915,0.71,0.685,0.705,0.592,0.822,0.752,0.79,0.81,0.943,0.951,1.05,0.934,1.07,1.04,1.12,1.09,,
NCI-H1975,0.592,0.617,0.538,0.5,1.09,1.04,0.918,0.867,0.297,0.372,0.461,0.37,1.01,0.88,1.01,0.922,0.821,0.993
NCI-H1993,,0.86,0.499,0.455,,0.618,0.69,0.51,1.14,1.12,1.21,1.2,0.703,0.811,0.699,0.799,0.615,0.831
NCI-H2085,0.886,0.929,0.797,0.526,0.925,0.987,1.01,0.805,1.16,0.898,1.07,1.16,0.971,0.867,1.02,0.947,0.881,1.06
NCI-H2087,1.47,1.17,1.36,1.25,0.96,1.06,1,0.962,0.68,0.715,0.789,0.753,1.04,0.956,0.958,0.858,1.5,0.932
NCI-H2126,0.927,0.983,0.975,0.928,0.799,0.764,0.806,0.739,1.12,1.09,1.11,1.11,0.755,0.7,0.723,0.701,0.55,
